# ChEMBL document CHEMBL1201862, “PubChem BioAssay data set” (2004)
#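 Dose response: 5 concentrations. Exposure: 48 h. Format: 96-well plates. Endpoint: linear interpolation; highest concentration if not reached. At the GI50, growth is halved.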 The source made the active and inactive calls. Cut-off read from the data, not from the text of the source: active = GI50 up to about 1.1 µM and inactive = higher.
# How the values were obtained:
# Assay in all cases: DTP human tumour cell line panel, 48 h
# 786-0 = test system: 786-0
# A498 = test system: A498
# A549 = test system: A549
# ACHN = test system: ACHN
# BT-549 = test system: BT-549
# CCRF-CEM = test system: CCRF-CEM
# COLO 205 = test system: COLO 205
# DLD-1 = test system: DLD-1
# DMS-114 = test system: DMS-114
# DMS-273 = test system: DMS-273
# DU-145 = test system: DU-145
# EKVX = test system: EKVX
# HCC 2998 = test system: HCC 2998
# HCT-116 = test system: HCT-116
# HCT-15 = test system: HCT-15
# HL-60 = test system: HL-60
# HOP-18 = test system: HOP-18
# HOP-62 = test system: HOP-62
# HOP-92 = test system: HOP-92
# HT-29 = test system: HT-29
# Hs-578T = test system: Hs-578T
# IGROV-1 = test system: IGROV-1
# K562 = test system: K562
# KM-20L2 = test system: KM-20L2
# KM12 = test system: KM12
# LOX IMVI = test system: LOX IMVI
# LXFL 529 = test system: LXFL 529
# M14 = test system: M14
# M19-MEL = test system: M19-MEL
# MCF7 = test system: MCF7
# MDA-MB-231 = test system: MDA-MB-231
# MDA-MB-435 = test system: MDA-MB-435
# MDA-N = test system: MDA-N
# MOLT-4 = test system: MOLT-4
# Malme-3M = test system: Malme-3M
# NCI-H226 = test system: NCI-H226
# NCI-H23 = test system: NCI-H23
# NCI-H460 = test system: NCI-H460
# NCI-H522 = test system: NCI-H522
# NCI/ADR-RES = test system: NCI/ADR-RES
# OVCAR-3 = test system: OVCAR-3
# OVCAR-4 = test system: OVCAR-4
# OVCAR-5 = test system: OVCAR-5
# OVCAR-8 = test system: OVCAR-8
# PC-3 = test system: PC-3
# RPMI-8226 = test system: RPMI-8226
# RXF 393 = test system: RXF 393
# SF-268 = test system: SF-268
# SF-295 = test system: SF-295
# SF-539 = test system: SF-539
# SK-MEL-28 = test system: SK-MEL-28
# SK-MEL-2 = test system: SK-MEL-2
# SK-MEL-5 = test system: SK-MEL-5
# SK-OV-3 = test system: SK-OV-3
# SN12C = test system: SN12C
# SNB-19 = test system: SNB-19
# SNB-75 = test system: SNB-75
# SNB-78 = test system: SNB-78
# SR = test system: SR
# SW-620 = test system: SW-620
# T47D = test system: T47D
# TK-10 = test system: TK-10
# U-251 = test system: U-251
# UACC-257 = test system: UACC-257
# UACC-62 = test system: UACC-62
# UO-31 = test system: UO-31
# XF498 = test system: XF498
smiles,measurement,setting,value
CC[C@H]1CN2CCc3cc(OC)c(OC)cc3[C@@H]2C[C@@H]1C[C@H]1NCCc2c1[nH]c1ccc(O)cc21 [TUBULOSINE],GI50,786-0,< 0.01 µM (active)
same,GI50,A498,0.0301 µM (active)
same,GI50,A549,< 0.01 µM (active)
same,GI50,ACHN,0.0396 µM (active)
same,GI50,BT-549,191 nM (active)
same,GI50,CCRF-CEM,< 0.01 µM (active)
same,GI50,COLO 205,< 0.01 µM (active)
same,GI50,DLD-1,0.0279 µM (active)
same,GI50,DMS-114,< 0.01 µM (active)
same,GI50,DMS-273,< 0.01 µM (active)
same,GI50,DU-145,< 10 nM (active)
same,GI50,EKVX,0.0294 µM (active)
same,GI50,HCC 2998,< 0.0105 µM (active)
same,GI50,HCT-116,0.0102 µM (active)
same,GI50,HCT-15,0.384 µM
same,GI50,HL-60,< 0.01 µM (active)
same,GI50,HOP-18,0.0454 µM (active)
same,GI50,HOP-62,< 0.01 µM (active)
same,GI50,HOP-92,0.0105 µM (active)
same,GI50,HT-29,< 0.01 µM (active)
same,GI50,Hs-578T,16.9 nM (active)
same,GI50,IGROV-1,0.0157 µM (active)
same,GI50,K562,< 0.013 µM (active)
same,GI50,KM-20L2,0.0153 µM (active)
same,GI50,KM12,0.0246 µM (active)
same,GI50,LOX IMVI,< 0.01 µM (active)
same,GI50,LXFL 529,0.0202 µM (active)
same,GI50,M14,< 0.0125 µM (active)
same,GI50,M19-MEL,< 0.01 µM (active)
same,GI50,MCF7,< 10 nM (active)
same,GI50,MDA-MB-231,< 10 nM (active)
same,GI50,MDA-MB-435,< 12.5 nM (active)
same,GI50,MDA-N,< 10 nM (active)
same,GI50,MOLT-4,< 0.01 µM (active)
same,GI50,Malme-3M,0.0421 µM (active)
same,GI50,NCI-H226,< 0.0113 µM (active)
same,GI50,NCI-H23,< 0.0113 µM (active)
same,GI50,NCI-H460,0.0102 µM (active)
same,GI50,NCI-H522,< 10 nM (active)
same,GI50,NCI/ADR-RES,1.73 µM (inactive)
same,GI50,OVCAR-3,0.0276 µM (active)
same,GI50,OVCAR-4,< 0.01 µM (active)
same,GI50,OVCAR-5,0.0153 µM (active)
same,GI50,OVCAR-8,0.0125 µM (active)
same,GI50,PC-3,< 15.6 nM (active)
same,GI50,RPMI-8226,< 0.0133 µM (active)
same,GI50,RXF 393,0.016 µM (active)
same,GI50,SF-268,< 0.0105 µM (active)
same,GI50,SF-295,0.0195 µM (active)
same,GI50,SF-539,0.0164 µM (active)
same,GI50,SK-MEL-28,0.0211 µM (active)
same,GI50,SK-MEL-2,13.7 nM (active)
same,GI50,SK-MEL-5,0.0135 µM (active)
same,GI50,SK-OV-3,0.0222 µM (active)
same,GI50,SN12C,< 0.01 µM (active)
same,GI50,SNB-19,< 0.01 µM (active)
same,GI50,SNB-75,< 0.01 µM (active)
same,GI50,SNB-78,0.0136 µM (active)
same,GI50,SR,< 215 nM (active)
same,GI50,SW-620,< 0.0119 µM (active)
same,GI50,T47D,< 10.6 nM (active)
same,GI50,TK-10,0.0388 µM (active)
same,GI50,U-251,< 0.0103 µM (active)
same,GI50,UACC-257,0.0582 µM (active)
same,GI50,UACC-62,0.0182 µM (active)
same,GI50,UO-31,0.326 µM (active)
same,GI50,XF498,0.0188 µM (active)
N#CCN1C(=O)c2cccc3cc([N+](=O)[O-])cc(c23)C1=O,GI50,786-0,60.3 µM (inactive)
same,GI50,A498,47.1 µM (inactive)
same,GI50,A549,40.1 µM (inactive)
same,GI50,ACHN,42.5 µM (inactive)
same,GI50,CCRF-CEM,24.7 µM (inactive)
same,GI50,COLO 205,35.3 µM (inactive)
same,GI50,DLD-1,32 µM (inactive)
same,GI50,DMS-114,38.7 µM (inactive)
same,GI50,DMS-273,30.7 µM (inactive)
same,GI50,EKVX,74.8 µM (inactive)
same,GI50,HCC 2998,44.8 µM (inactive)
same,GI50,HCT-116,32.2 µM (inactive)
same,GI50,HCT-15,28 µM
same,GI50,HL-60,23.8 µM (inactive)
same,GI50,HOP-18,> 100 µM (inactive)
same,GI50,HOP-62,41.1 µM (inactive)
same,GI50,HOP-92,99.1 µM (inactive)
same,GI50,HT-29,41.8 µM (inactive)
same,GI50,IGROV-1,42.9 µM (inactive)
same,GI50,K562,27.5 µM (inactive)
same,GI50,KM-20L2,45.2 µM (inactive)
same,GI50,KM12,32 µM (inactive)
same,GI50,LOX IMVI,21.6 µM (inactive)
same,GI50,LXFL 529,40.1 µM (inactive)
same,GI50,M14,37.3 µM (inactive)
same,GI50,M19-MEL,19.8 µM (inactive)
same,GI50,MOLT-4,26.4 µM (inactive)
same,GI50,Malme-3M,33.6 µM (inactive)
same,GI50,NCI-H226,17.3 µM (inactive)
same,GI50,NCI-H23,29.5 µM (inactive)
same,GI50,NCI-H460,29 µM (inactive)
same,GI50,OVCAR-3,29.4 µM (inactive)
same,GI50,OVCAR-4,45.4 µM (inactive)
same,GI50,OVCAR-5,31.3 µM (inactive)
same,GI50,OVCAR-8,38.9 µM (inactive)
same,GI50,RPMI-8226,22.7 µM (inactive)
same,GI50,RXF 393,28.4 µM (inactive)
same,GI50,SF-268,52 µM (inactive)
same,GI50,SF-295,61.9 µM (inactive)
same,GI50,SF-539,33 µM (inactive)
same,GI50,SK-MEL-28,35.2 µM (inactive)
same,GI50,SK-MEL-2,745 nM (active)
same,GI50,SK-MEL-5,43.1 µM (inactive)
same,GI50,SK-OV-3,> 100 µM (inactive)
same,GI50,SN12C,29.4 µM (inactive)
same,GI50,SNB-19,84.9 µM (inactive)
same,GI50,SNB-75,38 µM (inactive)
same,GI50,SNB-78,71.6 µM (inactive)
same,GI50,SR,5690 nM (inactive)
same,GI50,SW-620,36.5 µM (inactive)
same,GI50,TK-10,36.4 µM (inactive)
same,GI50,U-251,38.7 µM (inactive)
same,GI50,UACC-257,24.3 µM (inactive)
same,GI50,UACC-62,22.6 µM (inactive)
same,GI50,UO-31,23.4 µM (inactive)
same,GI50,XF498,25.8 µM (inactive)
